Assay [1] relates to Staphylococcus aureus ATCC 29213. The experiment in a line: Antibacterial activity, dilution susceptibility test (CLSI M07-A10). The class given is cell-based. Conditions: ATCC29213.
For assay [2], the system named is Staphylococcus aureus ATCC BAA-1556 (MERSA resistant). Described as above. The class given is cell-based. Conditions: ATCCBAA1556.
Assay [3] concerns Staphylococcus epidermidis. The assay is described as above. Type of assay: cell-based.
Assay [4] relates to Bacillus subtilis MTCC 441. Described as above. The class given is cell-based. Conditions: MTCC441.
Assay [5] relates to Enterococcus faecium ATCC 35667. Described as above. Type of assay: cell-based. Conditions: ATCC35667.
The subject of assay [6] is Enterococcus faecium ATCC 51559 (VRE resistant). The assay is described as above. The class given is cell-based.
Assay [7] deals with Klebsiella pneumonia MTCC 618. The assay is described as above. Type of assay: cell-based. As to conditions: Klebsiella pneumoniae, MTCC618.
The subject of assay [8] is Escherichia coli MTCC 443. Described as above. Conditions: MTCC443. The class given is cell-based.
Assay [9] relates to Pseudomonas aeruginosa MTCC 741. Described as above. The class given is cell-based. As to conditions: MTCC741.
The test system of assay [10] is Mycobacterium tuberculosis H37Rv strain. The experiment in a line: Anti-tubercular properties, alamar blue microplate MIC. Type of assay: cell-based. Conditions: 168 h, M. tuberculosis H37Rv, seven days at 37° C., read-out: anti-mycobacterial activity (MIC). Background: Resazurin is reduced to fluorescent resorufin, in cell work by metabolically active cells.
The target in the next assay is T1, DNA gyrase from E. coli (Escherichia coli, UniProt P0AES4+P0AES6).
T1 construct: purchased Inspiralis
T1 sequence (P0AES4 whole entry, one chain of several): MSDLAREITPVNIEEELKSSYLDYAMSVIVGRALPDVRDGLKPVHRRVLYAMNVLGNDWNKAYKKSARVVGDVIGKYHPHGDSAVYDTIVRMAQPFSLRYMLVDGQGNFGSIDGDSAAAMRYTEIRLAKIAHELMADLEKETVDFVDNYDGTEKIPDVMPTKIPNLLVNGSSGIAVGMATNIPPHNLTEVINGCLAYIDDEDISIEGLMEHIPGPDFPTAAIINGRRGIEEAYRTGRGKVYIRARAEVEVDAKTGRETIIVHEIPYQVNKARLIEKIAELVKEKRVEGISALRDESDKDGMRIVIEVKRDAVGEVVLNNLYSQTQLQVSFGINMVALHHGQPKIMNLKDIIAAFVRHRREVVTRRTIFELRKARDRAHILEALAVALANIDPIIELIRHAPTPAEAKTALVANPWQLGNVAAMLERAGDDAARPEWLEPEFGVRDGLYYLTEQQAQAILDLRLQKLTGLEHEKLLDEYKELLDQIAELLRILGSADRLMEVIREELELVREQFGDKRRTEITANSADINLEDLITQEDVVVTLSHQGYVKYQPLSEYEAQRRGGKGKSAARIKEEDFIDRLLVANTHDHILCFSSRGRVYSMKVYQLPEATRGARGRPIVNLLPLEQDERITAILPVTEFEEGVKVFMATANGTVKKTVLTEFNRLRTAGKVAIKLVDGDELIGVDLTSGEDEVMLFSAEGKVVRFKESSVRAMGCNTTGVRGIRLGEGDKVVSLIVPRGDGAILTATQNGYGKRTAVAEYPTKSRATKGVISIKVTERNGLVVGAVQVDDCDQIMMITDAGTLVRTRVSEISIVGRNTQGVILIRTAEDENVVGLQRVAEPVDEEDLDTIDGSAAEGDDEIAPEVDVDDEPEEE
Kind of assay: Inhibitory activity on E. coli DNA gyrase (Inspiralis assay). The class given is biochemical. On the procedure:
Inhibitory potencies were investigated utilizing the Inspiralis assay on streptavidin-coated 96-well microtiter plates. First, the plates were rehydrated with buffer (20 mM Tris-HCl with pH 7.6, 0.01% w/v BSA, 0.05% v/v Tween 20, 137 mM NaCl) and the biotinylated oligonucleotide was then immobilized. After washing off the unbound oligonucleotide, the enzyme test was performed. […] Reaction solutions were incubated at 37° C. for 30 min. After that, the TF buffer (50 mM NaOAc with pH 5.0, 50 mM NaCl and 50 mM MgCl2) was added to terminate the enzymatic reaction. After additional incubation for 30 min at rt, during which biotinoligonucleotide-plasmid triplex was formed, the unbound plasmid was washed off using TF buffer and SybrGOLD in T10 buffer (10 mM Tris HCl with pH 8.0 and 1 mM EDTA) was added. The fluorescence was measured with a microplate reader (BioTek Synergy H4, excitation: 485 nm, emission: 535 nm). Initial screening was done at 100 or 10 μM concentration of inhibitors. […] GraphPad Prism software was used to calculate the IC50 values. The result is given as the average value of three independent measurements.

From patent publication US11731939B1, “Indole-based chalcone compounds as antibacterial agents” (KING FAISAL UNIVERSITY, priority 2023, dated 2023) come the findings set out here.

Converted amounts (≈) assume the structure as drawn. Where two headings read alike, the source gives them in different places.

In the case of `CNc1cc(F)cc2c(/C=C/C(=O)c3ccc(C(=O)O)cc3)c[nH]c12` [Compound 1, (E)-4-(3-(5-fluoro-7-(methylamino)-1H-indol-3-yl)acryloyl)benzoic acid], the minimum inhibitory concentration (MIC) (as a rule, the lowest concentration found to suppress growth) turned out to be 0.75 µg/mL (≈ 2.22 µM) in assay [1]; 0.75 µg/mL (≈ 2.22 µM) in [2]; 1 µg/mL (≈ 2.96 µM) in assay [3] (read-out: MIC); 0.25 µg/mL (≈ 0.739 µM) in assay [4] (Bacillus subtilis MTCC 441, read-out: MIC); 1 µg/mL (≈ 2.96 µM) in assay [5] (Enterococcus faecium ATCC 35667, read-out: MIC); 0.5 µg/mL (≈ 1.48 µM) in assay [6] (Enterococcus faecium ATCC 51559 (VRE resistant), read-out: MIC). The MIC in assay [7] (Klebsiella pneumonia MTCC 618, read-out: MIC) came to 0.75 µg/mL (≈ 2.22 µM); in assay [8] (Escherichia coli MTCC 443, read-out: MIC) it was 0.75 µg/mL (≈ 2.22 µM); in [9] (Pseudomonas aeruginosa MTCC 741, read-out: MIC), 0.5 µg/mL (≈ 1.48 µM); in [10], 2 µg/mL (≈ 5.91 µM). At DNA gyrase from E. coli, the IC50 – broadly, the concentration needed to halve the response being measured – was 150 nM.

Turning to `CN[C@H](CC(C)C)C(=O)N[C@H]1C(=O)N[C@@H](CC(N)=O)C(=O)N[C@H]2C(=O)N[C@H]3C(=O)N[C@H](C(=O)N[C@H](C(=O)O)c4cc(O)cc(O)c4-c4cc3ccc4O)[C@H](O)c3ccc(c(Cl)c3)Oc3cc2cc(c3O[C@@H]2O[C@H](CO)[C@@H](O)[C@H](O)[C@H]2O[C@H]2C[C@](C)(N)[C@H](O)[C@H](C)O2)Oc2ccc(cc2Cl)[C@H]1O` [Vancomycin, reference compound], the MIC is 1 µg/mL (≈ 0.69 µM) in assay [3]; 0.5 µg/mL (≈ 0.345 µM) in assay [4] (Bacillus subtilis); 0.5 µg/mL (≈ 0.345 µM) in [5] (Enterococcus faecium); over 128 µg/mL in assay [6] (Enterococcus faecium); over 128 µg/mL in assay [7]; over 128 µg/mL in assay [8] (Escherichia coli). The same compound displayed an MIC in [9] (Pseudomonas aeruginosa) of over 128 µg/mL.
